Assay results from ChEMBL document CHEMBL1201862, “PubChem BioAssay data set” (2004).
One block for each molecule: values may come before it. Calls of active or inactive are those of the source.

Key:
[1] = molecular target: Metabotropic glutamate receptor 5 (Rattus norvegicus, UniProt P31424); test: Identification of a glycine sulfonamide based non-MPEP site positive allosteric potentiator (PAM) of mGlu5 (calcium_assay).; assay type: functional
[2] = molecular target: Endoplasmic reticulum aminopeptidase 1 (Homo sapiens, UniProt Q9NZ08); test: inhibition of human ERAP1 enzyme activity – biochemical, cherry-pick, set 2, plate reader, dose response (AID 743314)
[3] = OVCAR8 cell viability loss – plate reader, dry powder samples, PAX8 project, dose response (AID 743197); assay type: functional, cell-based; settings: OVCAR-8
[4] = IGROV1 cell killing – plate reader, dry powder samples, PAX8 inhibitor project, dose response (AID 743043); assay type: functional, cell-based; settings: IGROV-1
[5] = OVCAR-3 cell viability loss – plate reader, dry powder samples, PAX8 inhibitor project, dose response (AID 743044); assay type: functional, cell-based
Paired box protein Pax-8 = Paired box protein Pax-8 (Homo sapiens, UniProt Q06710); test: PAX8 transcriptional activity inhibition in RMG-I – RMG-I cells, luciferase, cherry-pick, dose response (AID 687027); assay type: functional, cell-based;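 further: luciferase reporter driven by Pax8 target thyroperoxidase promoter measured by SteadyGlo luminescence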
[6] = toxicity toward immortalized ovarian surface epithelium – cell-based, plate reader, dry powder samples, cytotoxicity control for PAX8 inhibitor project, dose response (AID 743045); assay type: functional
[7] = viability loss in mouse NIH3T3 cells – cell-based, CellTiter-Glo luminescence, dry powder, cytotoxicity control for PglD inhibitor project, dose response (AID 652044); assay type: functional
[8] = Counterscreen for activators of the function of SWI/SNF related, matrix associated, actin dependent regulator of chromatin, subfamily a, member 2 (SMARCA2, BRM): Luminescence-based cell-based high throughput dose response assay to identify non-selective compounds using the VP16 reporter assay.; assay type: functional
HEK293 [9] = test: cells; settings: Homo sapiens
[10] = molecular target: SWI/SNF-related matrix-associated actin-dependent regulator of chromatin subfamily A member 2 (Homo sapiens, UniProt P51531); test: Luminescence-based cell-based high throughput dose response assay to identify activators of the function of SWI/SNF related, matrix associated, actin dependent regulator of chromatin, subfamily a, member 2 (SMARCA2, BRM).; assay type: functional
[11] = molecular target: Beta-2 adrenergic receptor (Homo sapiens, UniProt P07550); test: ADRB2 activation measured by internalization – cell-based, FAP fluorogen, flow cytometry, cherry pick 1, dose response (AID 588763); assay type: functional
HEK293 [12] = test: cells; settings: Homo sapiens; remark: listed apart in the source
[13] = molecular target: ATP-dependent translocase ABCB1 (Homo sapiens, UniProt P08183); test: P-gp JC-1 efflux blockers potency – Jurkat-DNR cells, flow cytometry, follow-up, dose response (AID 489002); assay type: functional
[14] = inhibitors of TRPM1-promoter reporter in SK-MEL-5 – cell-based, luciferase, dry powder, set 8, MITF inhibitor project, dose response (AID 624430); assay type: functional
[15] = MITF Orthogonal Assay: SK-MEL-5 CTG Assay Measured in Cell-Based System Using Plate Reader - 2084-02_Inhibitor_Dose_DryPowder_Activity_Set7.; assay type: functional
[16] = MITF: Counter assay: A375 proliferation Measured in Cell-Based System Using Plate Reader - 2084-03_Inhibitor_Dose_DryPowder_Activity_Set8.; assay type: functional; settings: A-375
[17] = molecular target: COUP transcription factor 2 (Homo sapiens, UniProt P24468); test: Luminescence-based cell-based high throughput dose response assay to identify inhibitors of COUP-TFII (NR2F2).; assay type: functional;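 further: HEK293 cells transiently cotransfected with COUP-TFII expression vector and reporter; luciferase reporter luminescence driven by COUP-TFII from the pX2-168 reporter plasmid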
cells [18] = assay type: functional, cell-based
[19] = molecular target: T1, Trace amine-associated receptor 1 (Homo sapiens, UniProt Q96RJ0); test: Counterscreen for agonists of the human trace amine associated receptor 1 (hTAAR1): Fluorescence-based cell-based high throughput dose response assay to identify hTAAR1 agonist that also desensitize TAAR1 receptor response.; assay type: functional
[20] = molecular target: T1, Trace amine-associated receptor 1; test: Fluorescence-based cell-based high throughput dose response assay to identify agonists of the human trace amine associated receptor 1 (TAAR1).; assay type: functional
cells [21] = assay type: functional, cell-based; remark: listed apart in the source
[22] = molecular target: Delta-type opioid receptor (Homo sapiens, UniProt P41143); test: Late-stage results from the probe development effort to identify antagonists of OPRK1: fluorescence-based cell-based dose response OPRD1 counterscreen.; assay type: functional
Mu-type opioid receptor = Mu-type opioid receptor (Homo sapiens, UniProt P35372); test: Late-stage results from the probe development effort to identify antagonists of OPRK1: luminescence-based cell-based dose response OPRM1 counterscreen.; assay type: functional
Mu-type opioid receptor, sequence (P35372 whole entry): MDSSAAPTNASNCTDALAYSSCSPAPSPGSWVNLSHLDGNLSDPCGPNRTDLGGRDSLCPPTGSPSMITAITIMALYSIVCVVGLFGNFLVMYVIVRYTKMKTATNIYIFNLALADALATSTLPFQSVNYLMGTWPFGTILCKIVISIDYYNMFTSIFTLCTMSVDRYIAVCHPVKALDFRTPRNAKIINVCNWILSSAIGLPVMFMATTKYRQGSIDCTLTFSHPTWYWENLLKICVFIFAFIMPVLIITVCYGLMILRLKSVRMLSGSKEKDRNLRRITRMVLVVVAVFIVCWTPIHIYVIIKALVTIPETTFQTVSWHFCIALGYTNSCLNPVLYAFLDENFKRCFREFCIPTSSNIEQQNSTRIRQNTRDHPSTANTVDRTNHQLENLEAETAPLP

T1 sequence (Q96RJ0 whole entry): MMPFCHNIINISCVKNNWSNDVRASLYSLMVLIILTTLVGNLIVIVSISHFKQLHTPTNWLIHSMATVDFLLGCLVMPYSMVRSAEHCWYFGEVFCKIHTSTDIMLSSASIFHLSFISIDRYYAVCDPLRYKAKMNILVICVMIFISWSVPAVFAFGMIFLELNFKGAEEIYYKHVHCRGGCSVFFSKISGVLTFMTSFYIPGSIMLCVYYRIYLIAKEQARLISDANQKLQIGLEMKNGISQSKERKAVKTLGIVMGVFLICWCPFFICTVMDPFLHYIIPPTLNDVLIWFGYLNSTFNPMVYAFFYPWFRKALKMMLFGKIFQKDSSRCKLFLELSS
ATP-dependent translocase ABCB1, sequence (P08183 whole entry): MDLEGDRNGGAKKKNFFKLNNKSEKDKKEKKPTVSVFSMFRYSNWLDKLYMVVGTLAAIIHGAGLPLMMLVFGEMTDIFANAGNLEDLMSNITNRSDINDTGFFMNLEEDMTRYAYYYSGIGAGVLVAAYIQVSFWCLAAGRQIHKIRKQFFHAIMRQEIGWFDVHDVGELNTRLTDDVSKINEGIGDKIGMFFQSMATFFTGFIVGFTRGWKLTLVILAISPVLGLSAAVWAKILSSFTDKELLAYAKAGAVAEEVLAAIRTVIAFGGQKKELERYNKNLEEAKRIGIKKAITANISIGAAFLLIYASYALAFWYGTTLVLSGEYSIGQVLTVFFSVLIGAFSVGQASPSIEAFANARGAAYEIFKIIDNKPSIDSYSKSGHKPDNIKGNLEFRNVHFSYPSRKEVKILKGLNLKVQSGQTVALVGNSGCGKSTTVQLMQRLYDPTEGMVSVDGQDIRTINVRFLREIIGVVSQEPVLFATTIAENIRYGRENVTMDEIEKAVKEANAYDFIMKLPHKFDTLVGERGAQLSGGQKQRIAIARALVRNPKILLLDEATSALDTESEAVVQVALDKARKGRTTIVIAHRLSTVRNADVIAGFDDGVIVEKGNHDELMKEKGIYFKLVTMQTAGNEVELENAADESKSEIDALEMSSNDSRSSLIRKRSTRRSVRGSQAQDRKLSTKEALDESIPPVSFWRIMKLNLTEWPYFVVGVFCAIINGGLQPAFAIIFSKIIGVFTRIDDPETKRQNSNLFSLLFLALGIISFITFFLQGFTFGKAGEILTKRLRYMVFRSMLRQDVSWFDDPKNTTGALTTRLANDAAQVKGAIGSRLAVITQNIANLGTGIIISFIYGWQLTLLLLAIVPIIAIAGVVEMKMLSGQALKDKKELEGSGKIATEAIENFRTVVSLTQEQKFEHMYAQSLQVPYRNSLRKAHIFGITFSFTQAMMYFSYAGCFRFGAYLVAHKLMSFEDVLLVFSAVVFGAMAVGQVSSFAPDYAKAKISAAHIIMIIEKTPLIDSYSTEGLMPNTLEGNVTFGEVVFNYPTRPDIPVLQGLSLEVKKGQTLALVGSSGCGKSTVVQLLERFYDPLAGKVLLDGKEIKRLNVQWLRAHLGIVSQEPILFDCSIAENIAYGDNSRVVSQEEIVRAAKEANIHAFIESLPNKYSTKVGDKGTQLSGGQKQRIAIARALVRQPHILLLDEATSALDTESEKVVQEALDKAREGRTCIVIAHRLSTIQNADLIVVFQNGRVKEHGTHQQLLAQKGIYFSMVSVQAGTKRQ
COUP transcription factor 2, sequence (P24468 whole entry): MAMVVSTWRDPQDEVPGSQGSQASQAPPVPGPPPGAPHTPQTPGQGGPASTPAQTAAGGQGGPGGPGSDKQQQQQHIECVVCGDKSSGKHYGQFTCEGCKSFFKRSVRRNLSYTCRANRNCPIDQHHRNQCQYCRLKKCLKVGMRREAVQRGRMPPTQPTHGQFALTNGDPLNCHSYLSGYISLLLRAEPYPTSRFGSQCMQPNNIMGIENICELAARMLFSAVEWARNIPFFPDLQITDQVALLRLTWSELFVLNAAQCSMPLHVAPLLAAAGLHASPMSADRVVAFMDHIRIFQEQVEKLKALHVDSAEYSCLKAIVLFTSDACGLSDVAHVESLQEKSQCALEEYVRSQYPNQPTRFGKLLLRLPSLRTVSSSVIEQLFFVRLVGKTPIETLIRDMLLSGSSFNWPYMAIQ
Delta-type opioid receptor, sequence (P41143 whole entry): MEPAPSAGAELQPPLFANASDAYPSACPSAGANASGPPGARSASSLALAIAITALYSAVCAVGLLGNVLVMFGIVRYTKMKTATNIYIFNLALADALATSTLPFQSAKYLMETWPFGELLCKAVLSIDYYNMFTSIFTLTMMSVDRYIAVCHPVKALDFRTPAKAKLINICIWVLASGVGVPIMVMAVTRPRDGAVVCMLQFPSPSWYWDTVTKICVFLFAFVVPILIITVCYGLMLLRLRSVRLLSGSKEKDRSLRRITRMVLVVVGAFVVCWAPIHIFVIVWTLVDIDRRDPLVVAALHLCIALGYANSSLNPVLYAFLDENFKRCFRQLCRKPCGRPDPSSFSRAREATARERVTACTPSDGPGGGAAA
Metabotropic glutamate receptor 5, sequence (P31424 whole entry): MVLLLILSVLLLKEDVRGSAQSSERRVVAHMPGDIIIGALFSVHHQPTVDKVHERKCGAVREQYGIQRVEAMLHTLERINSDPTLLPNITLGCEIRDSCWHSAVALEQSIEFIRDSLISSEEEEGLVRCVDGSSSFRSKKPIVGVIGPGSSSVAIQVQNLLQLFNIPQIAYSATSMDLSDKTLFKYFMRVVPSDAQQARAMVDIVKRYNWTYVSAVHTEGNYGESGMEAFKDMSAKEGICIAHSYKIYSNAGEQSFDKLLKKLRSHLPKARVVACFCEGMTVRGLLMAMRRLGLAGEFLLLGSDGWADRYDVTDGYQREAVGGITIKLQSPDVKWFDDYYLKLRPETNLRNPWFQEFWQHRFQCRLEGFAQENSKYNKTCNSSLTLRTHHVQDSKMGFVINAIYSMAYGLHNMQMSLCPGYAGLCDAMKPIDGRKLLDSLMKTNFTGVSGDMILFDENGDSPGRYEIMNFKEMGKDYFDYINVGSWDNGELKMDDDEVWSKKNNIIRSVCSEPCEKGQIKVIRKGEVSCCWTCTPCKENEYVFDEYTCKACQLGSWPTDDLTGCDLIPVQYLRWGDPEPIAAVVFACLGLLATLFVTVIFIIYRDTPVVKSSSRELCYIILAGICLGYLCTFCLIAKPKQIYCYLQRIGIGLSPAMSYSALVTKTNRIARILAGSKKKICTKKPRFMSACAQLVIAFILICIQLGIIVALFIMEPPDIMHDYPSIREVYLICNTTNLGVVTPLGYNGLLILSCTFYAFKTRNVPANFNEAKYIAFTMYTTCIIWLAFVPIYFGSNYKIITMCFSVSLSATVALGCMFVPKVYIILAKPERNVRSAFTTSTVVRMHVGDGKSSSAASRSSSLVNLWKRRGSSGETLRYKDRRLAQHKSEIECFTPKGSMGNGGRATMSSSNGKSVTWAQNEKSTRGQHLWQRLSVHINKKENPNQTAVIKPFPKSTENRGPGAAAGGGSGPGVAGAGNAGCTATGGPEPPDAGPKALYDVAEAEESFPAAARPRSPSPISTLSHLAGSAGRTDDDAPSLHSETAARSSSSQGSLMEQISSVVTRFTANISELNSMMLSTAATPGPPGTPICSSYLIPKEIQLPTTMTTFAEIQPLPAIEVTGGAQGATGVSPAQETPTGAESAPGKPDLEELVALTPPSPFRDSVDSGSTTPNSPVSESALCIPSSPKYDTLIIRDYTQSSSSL
Paired box protein Pax-8, sequence (Q06710 whole entry): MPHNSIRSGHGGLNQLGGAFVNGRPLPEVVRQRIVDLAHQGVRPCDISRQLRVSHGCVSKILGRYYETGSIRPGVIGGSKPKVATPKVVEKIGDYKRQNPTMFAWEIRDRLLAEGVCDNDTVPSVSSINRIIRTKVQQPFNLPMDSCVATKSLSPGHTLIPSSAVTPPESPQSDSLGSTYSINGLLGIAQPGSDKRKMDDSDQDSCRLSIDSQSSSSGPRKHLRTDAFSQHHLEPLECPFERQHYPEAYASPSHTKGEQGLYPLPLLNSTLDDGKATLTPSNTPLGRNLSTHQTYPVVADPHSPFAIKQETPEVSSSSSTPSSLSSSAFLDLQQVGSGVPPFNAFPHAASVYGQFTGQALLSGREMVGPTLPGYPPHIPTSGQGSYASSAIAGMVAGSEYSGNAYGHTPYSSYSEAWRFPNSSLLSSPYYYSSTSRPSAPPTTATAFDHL
Beta-2 adrenergic receptor, sequence (P07550 whole entry): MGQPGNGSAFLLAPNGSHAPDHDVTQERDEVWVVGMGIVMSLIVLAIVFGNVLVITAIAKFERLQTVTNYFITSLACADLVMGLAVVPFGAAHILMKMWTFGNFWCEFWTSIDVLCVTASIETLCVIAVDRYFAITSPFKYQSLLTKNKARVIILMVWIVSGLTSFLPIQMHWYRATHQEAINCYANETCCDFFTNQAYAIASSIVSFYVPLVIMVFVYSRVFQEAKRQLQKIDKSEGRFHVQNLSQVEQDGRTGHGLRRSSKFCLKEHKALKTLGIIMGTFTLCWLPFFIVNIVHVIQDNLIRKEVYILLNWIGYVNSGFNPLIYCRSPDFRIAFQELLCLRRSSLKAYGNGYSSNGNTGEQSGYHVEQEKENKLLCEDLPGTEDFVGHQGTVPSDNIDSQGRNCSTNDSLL

EC50 [1]: 2.46 µM
SMILES: CS(=O)(=O)N(Cc1nc2ccccc2[nH]1)c1ccccc1Cl

SMILES: COC(=O)[C@@H]1[C@@H](CO)[C@@H]2Cn3c(ccc(/C=C/c4ccccc4)c3=O)[C@H]1N2C(=O)C1CCC1
AC50 [2]: 3.47 µM (active)

SMILES: C[C@@H]1CCCCO[C@@H](CN(C)Cc2ccc3c(c2)OCO3)[C@H](C)CN([C@@H](C)CO)C(=O)c2cc(NC(=O)Nc3ccc(C(F)(F)F)cc3)ccc2O1
AC50 [3]: 30.2 µM (active)
AC50 [4]: 34 µM (active)
AC50 [5]: 15.4 µM (active)
AC50 (Paired box protein Pax-8): 14.5 µM (active)
AC50 [6]: 63.2 µM (active)

SMILES: C[C@@H]1CN([C@@H](C)CO)C(=O)c2cc(NC(=O)Nc3ccc(F)cc3)ccc2O[C@@H]1CN(C)CC1CCCCC1
AC50 [7]: 43.4 µM (active)

SMILES: CC1(C)Cc2c(c(-c3ccco3)nc3sc4c(NCCCO)ncnc4c23)CO1
EC50 [8]: > 91.2 µM (inactive)
EC50 (HEK293 [9]): > 59.6 µM (inactive)
EC50 [10]: > 91.2 µM (inactive)
EC50 [11]: 0.0207 µM (active)
EC50 (HEK293 [12]): > 59.6 µM (inactive)

EC50 [13]: 0.0002986 µM
SMILES: CC1CN(C(=O)c2ccoc2)CCN1c1cc(-c2ccco2)nc2cc(-c3ccccc3)nn12 (centres undefined)

SMILES: CN1CCN(C2=C(Nc3ccc(Cl)cc3)C(=O)c3ccccc3C2=O)CC1
AC50 [14]: 17.4 µM (active)
AC50 [15]: 11.6 µM (active)
AC50 [16]: 39.3 µM (active)

IC50 [17]: 11.7 µM (inactive)
SMILES: Cc1ccc(-n2nc3c(=O)n(C(C)C(=O)NCCCc4ccccc4)nc(C)c3c2C)cc1 (centres undefined)

SMILES: Cc1cccc(CSC(=N)N)c1
IC50 (cells [18]): > 30 µM (inactive)
IC50 [19]: 16.9 µM (inactive)
EC50 [20]: 1.21 µM (active)
EC50 (cells [21]): > 30 µM (inactive)

IC50 [22]: 12 µM (inactive)
IC50 (Mu-type opioid receptor): 4.2 µM (active)
SMILES: COC(=O)c1cc(Br)cnc1N1CCC(NC2CCCCCC2)CC1
